Assay results taken from patent US20160031839A1, “ARGININE […] INHIBITORS AND USES THEREOF” (EPIZYME, INC., priority 2013, published 2016).
pIC50: −log10 of the molar value. Where two headings read alike, the source gives them in different places.

Target: T1, PRMT3 (Homo sapiens, UniProt O60678)
T1 construct: made in house; host or cells: E. coli BL21(DE3) Gold
Assay: PRMT3 Biochemical Assay
Description: Peptide containing the classic RMT substrate motif was synthesized with an N-terminal linker-affinity tag motif and a C-terminal amide cap by 21st Century Biochemicals. The peptide was purified by high-performance liquid chromatography (HPLC) to greater than 95% purity and confirmed by liquid chromatography mass spectrometry (LC-MS). The sequence was Biot-Ahx-[…]-amide (SEQ ID NO.:11).
Full-length human PRMT3 (NM_005788.3) isoform 1 transcript clone was amplified from an HEK 293 cDNA library and subcloned into pGEX-KG (GE Life Sciences). The resulting construct encodes an N-terminal GST tag and a thrombin cleavage sequence
GST-tagged PRMT3 was eluted with 50 mM Tris, 2 mM glutathione, pH 7.1 and 50 mM Tris, 20 mM glutathione, pH 7.1. Pooled fractions were dialysed in 20 mM Tris, 50 mM NaCl, 5% glycerol, 1 mM EDTA, 1 mM DTT, pH7.5 (Buffer B) and applied to a Q Sepharose Fast Flow column. GST-tagged PRMT3 was eluted by 500 mM NaCl in buffer B. Pooled fractions were dialyzed in 25 mM phosphate buffer, 100 mM NaCl, 5% glycerol, 2 mM DTT, pH 6.8 (Buffer C) and loaded on to a ceramic hydroxyapatite column. GST-tagged PRMT3 eluted with 25-400 mM phosphate in buffer C. Protein was concentrated and buffer was exchanged to 20 mM Tris, 150 mM NaCl, 5% glycerol, 5 mM β-mercaptoethanol, pH7.8 by ultrafiltration. The purity of recovered protein was 70%.
General Procedure for PRMT3 Enzyme Assays on Peptide Substrates.
The assays were all performed in a buffer consisting of 20 mM Bicine (pH=7.6), 1 mM TCEP, 0.005% BSG, and 0.002% Tween 20, prepared on the day of use. Compounds in 100% DMSO (1 ul) were spotted into a polypropylene 384-well V-bottom plates (Greiner) using a Platemate Plus outfitted with a 384-channel head (Thermo Scientific). DMSO (1 ul) was added to Columns 11, 12, 23, 24, rows A-H for the maximum signal control and 1 ul of SAH, a known product and inhibitor of PRMT3, was added to columns 11, 12, 23, 24, rows I-P for the minimum signal control. A cocktail (40 ul) containing the PRMT3 enzyme was added by Multidrop Combi (Thermo-Fisher). The compounds were allowed to incubate with PRMT3 for 30 min at room temperature, then a cocktail (10 ul) containing SAM and peptide was added to initiate the reaction (final volume=51 ul). The final concentrations of the components were as follows: PRMT3 was 0.5 nM, ^3H-SAM was 100 nM, non-radiolabeled SAM was 1.8 uM, peptide was 330 nM, SAH in the minimum signal control wells was 1 mM, and the DMSO concentration was 2%. The assays were stopped by the addition of potassium chloride (10 ul) to a final concentration of 100 mM. 50 ul of the reaction in the 384-well polypropylene plate was then transferred to a 384-well Flashplate and the biotinylated peptides were allowed to bind to the streptavidin surface for at least 1 hour before being washed once with 0.1% Tween20 in a Biotek ELx405 plate washer. The plates were then read in a PerkinElmer TopCount plate reader to measure the quantity of ^3H-labeled peptide bound to the Flashplate surface, measured as disintegrations per minute (dpm) or alternatively, referred to as counts per minute (cpm).
Where dpm=disintegrations per minute, cmpd=signal in assay well, and min and max are the respective minimum and maximum signal controls.
Where top and bottom are the normally allowed to float, but may be fixed at 100 or 0 respectively in a 3-parameter fit. The Hill Coefficient normally allowed to float but may also be fixed at 1 in a 3-parameter fit. Y is the % inhibition and X is the compound concentration.

[1] = Table 2, biochemical evaluation, read-out: PRMT3 IC50 (class)
[2] = Table 2a, numerical, single experiment or average of multiple experiments, read-out: PRMT3 IC50

T1 sequence (O60678 with tags, fused parts or gaps): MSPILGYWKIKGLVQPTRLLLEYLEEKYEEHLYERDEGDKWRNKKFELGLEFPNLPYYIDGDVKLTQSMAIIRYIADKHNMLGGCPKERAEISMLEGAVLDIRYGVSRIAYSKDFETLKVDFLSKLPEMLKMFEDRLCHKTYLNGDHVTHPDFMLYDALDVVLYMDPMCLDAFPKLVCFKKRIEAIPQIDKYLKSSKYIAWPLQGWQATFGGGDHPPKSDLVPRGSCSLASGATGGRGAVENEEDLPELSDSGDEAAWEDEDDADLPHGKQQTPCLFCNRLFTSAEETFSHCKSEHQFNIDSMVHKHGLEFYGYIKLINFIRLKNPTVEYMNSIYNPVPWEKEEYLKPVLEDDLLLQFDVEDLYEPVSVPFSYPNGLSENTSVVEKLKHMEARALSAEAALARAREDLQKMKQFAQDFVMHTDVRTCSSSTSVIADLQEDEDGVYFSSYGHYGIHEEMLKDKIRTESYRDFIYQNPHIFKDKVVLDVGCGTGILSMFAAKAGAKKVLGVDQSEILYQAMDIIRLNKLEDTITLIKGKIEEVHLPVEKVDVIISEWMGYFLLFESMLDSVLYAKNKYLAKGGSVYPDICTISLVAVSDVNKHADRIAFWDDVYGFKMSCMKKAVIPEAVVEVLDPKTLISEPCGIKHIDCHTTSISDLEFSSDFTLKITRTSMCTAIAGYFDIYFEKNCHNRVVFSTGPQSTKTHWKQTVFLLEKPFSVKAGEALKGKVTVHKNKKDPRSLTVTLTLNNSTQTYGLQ

| Structure (SMILES) | pIC50 [1] | pIC50 [2] |
| --- | --- | --- |
| CN(CCN)Cc1n[nH]nc1-c1ccc(C#N)cc1 [Compound 3, 4-(5-(((2-aminoethyl)(methyl)amino)methyl)-2H-1,2,3-triazol-4-yl)benzonitrile] | < 5.00 | < 5.00 |
| CN(CCN)Cc1ncoc1-c1ccc(C#N)cc1 [Compound 1, 4-(4-(((2-aminoethyl)(methyl)amino)methyl)oxazol-5-yl)benzonitrile] | < 5.00 | < 5.00 |
| CN(CCN)Cc1ccnn1-c1ccc(C#N)cc1 [Compound 2, 4-(5-(((2-aminoethyl)(methyl)amino)methyl)-1H-pyrazol-1-yl)benzonitrile] | < 5.00 | < 5.00 |
